This experiment deals with IRE1α/XBP-1 pathway (XBP1-luciferase reporter). The experiment is described as follows: High throughput XBP-luciferase reporter screen, tunicamycin/thapsigargin induced (HTS and IRE IC50). In kind it is cell-based, human. As for the experimental part:
Specifically, HT1080 fibrosarcoma cells stably transfected with the unspliced XBP-1-luciferase reporter construct (3000/well) were plated onto a solid white 384 well microplate with a multidrop dispenser (40 μL per well). The plates were then placed into an automated incubator. After 24 hours of growth, a mixture of tunicamycin (1 μg/ml) and thapsigargin (100 nM) inducers were added, and candidate compounds were then added to the plates. After 24 hours, luciferase reagent (10 μl) was added to each well and the plates were read in a Molecular Devices Analyst GT (0.2 second read per well).
As described above in Example 2, HT1080 fibrosarcoma cells stably expressing the XBP-luciferase reporter were plated in a 384 well microplate (4000 cells/well). After 24 hours, cells were treated with a mixture of tunicamycin (4 μg/ml) and thapsigargin (0.4 μM), followed by the addition of one compound per well (10 μM). We screened a total of 66,000 diverse molecules obtained from Specs, Chembridge and ChemRX. Twenty-four hours post-induction, BriteGlo luciferase substrate (10 μl) was added to each well and the signal intensity determined in a plate reader (0.2 s read per well). […] We retested 431 compounds from the initial screen, and selected 58 compounds for additional analysis, including calculation of IC50 values and inhibition of a CMV-luciferase reporter.
A. XBP-luciferase reporter construct. Firefly luciferase was inserted downstream of the IRE1α splice site in human XBP-1 to enable the conditional translation of luciferase under ER stress in an IRE1α-dependent manner. B. Selective inhibition of the XBP-luciferase reporter by irestatin 9389. HT1080 human fibrosarcoma cells stably expressing the XBP-luciferase reporter or CMV-luciferase were cultured in the presence of Tm (4 μg/ml) and Tg (0.4 μM) and irestatin 9389 at the indicated concentrations. After 24 hours, luciferase activity was analyzed in an automated plate reader. For each cell line, values are expressed as the percent inhibition of the median for Tm/Tg-treated wells, corrected for background. C. Structure of irestatin 9389. D. XBP-luciferase reporter assay. HT1080 cells stably expressing the XBP-luciferase reporter were exposed to Tm (4 μg/ml) for 24 hours or hypoxia (0.1% oxygen) for 24 or 48 hours, in the presence of DMSO or irestatin 9389 (1 μM) as indicated. Values are expressed as the fold increases over uninduced levels. E. 5X-UPRE reporter assay. HT1080 cells were co-transfected with 5X-UPRE luciferase and SV40-beta-gal reporter plasmids, followed by exposure to Tm or hypoxia as in D. For each condition, luciferase activity is normalized to beta-galactosidase expression levels as an internal control for transfection efficiency. F. Western immunoblot analysis of XBP-1s. HT1080 cells were left untreated (lane 2) or exposed to Tm (4 μg/ml) for 20 hours in the presence of DMSO vehicle (lane 1) or the indicated irestatins (2 μM; lanes 3-6). Cell lysates were resolved by SDS-PAGE and immunoblotting using antisera specific for XBP-1s (top panel) or actin and GAPDH (bottom panel) as loading controls. […] HT1080 cells were treated with DMSO or exposed to irestatin 9389 (2 μM; lane 3) in normoxia (N) or under hypoxia for 24 hours (H 24; lanes 2,3). Cells were harvested, lysed, and analyzed by immunoblotting with antisera specific for HIF-1α (top), XBP-1s (middle) or actin (bottom). H. Northern blot analysis of XBP-1s transcription targets. Cells were exposed to Tm (4 μg/ml) or hypoxia for 24 hours (H 24) in the absence or presence of irestatin 9389 (2 μM). Total RNA was analyzed by Northern blotting using radiolabeled probes specific for P58^IPK or DER-1. Total rRNA is shown as loading control.
As described above, a HT1080 fibrosarcoma cell line stably expressing a fusion of unprocessed XBP-1 inserted upstream of firefly luciferase has been developed to identify small molecule inhibitors of the IRE1α/XBP-1 signaling module. […]
On the technique in general: In a reporter assay the amount or activity of a reporter protein is the signal.

Take `Cc1csc(NC(=O)CSc2nc3c(c(C(F)(F)F)c2C#N)CCC3)n1` [Compound 9389]: the “inhibition of IRE1α / IRE1α/XBP-1 signaling module in screen” value (HT1080 XBP-luciferase, Tm/Tg) is “potent and specific inhibition of IRE1α”. Under “Homo sapiens, 24 h, inhibition of XBP1-luciferase reporter, read-out: Activity Class”, the inhibition at 10 µM was 75 to 100%. For the same compound, under “Homo sapiens, HT-1080, 24 h, HT1080, Tm 4 μg/ml and Tg 0.4 μM, 24 hours, read-out: mean inhibitory concentration (IC50) of XBP-luciferase activity”, the IC50 is around 25 nM. Also, the inhibition at 20 µM (Homo sapiens, IRE IC50 assay, Conc 20 uM) was determined as 87.1%.

The values above are taken from patent US20090291857A1, “METHODS TO IDENTIFY INHIBITORS OF THE UNFOLDED PROTEIN RESPONSE” (THE BOARD OF TRUSTEES OF THE LELAND STANFORD JUNIOR …, priority 2006, published 2009).
